Assay results taken from PubChem BioAssay (NCI).
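Grown in 96-well plates, cells were treated for 48 hours with each compound at five concentrations. Insufficient inhibition: endpoint recorded as highest concentration tested. TGI is the concentration that stops growth completely.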

Key:
Assay in all cases: DTP human tumour cell line panel, 48 h
MCF7 breast = tested on: MCF7 breast
T-47D breast = tested on: T-47D breast
DU-145 prostate = tested on: DU-145 prostate
MDA-N = tested on: MDA-N
NCI/ADR-RES ovarian = tested on: NCI/ADR-RES ovarian
SR leukemia = tested on: SR leukemia
MDA-MB-435 = tested on: MDA-MB-435
HS 578T breast = tested on: HS 578T breast
NCI-H522 lung = tested on: NCI-H522 lung
MDA-MB-231 breast = tested on: MDA-MB-231 breast
KM12 colon = tested on: KM12 colon
PC-3 prostate = tested on: PC-3 prostate
DMS 273 small cell lung = tested on: DMS 273 small cell lung
SNB-78 CNS = tested on: SNB-78 CNS
LXFL 529 NSCLC = tested on: LXFL 529 NSCLC
DLD-1 colon = tested on: DLD-1 colon
TK-10 renal = tested on: TK-10 renal
XF 498 CNS = tested on: XF 498 CNS
NCI-H226 lung = tested on: NCI-H226 lung
HCT-116 colon = tested on: HCT-116 colon

Cc1cc(C)nc(NS(=O)(=O)c2ccc(Nc3c4ccccc4nc4c(C(=O)NCCO)cccc34)cc2)n1
TGI (MCF7 breast): 42.8 µM | TGI (T-47D breast): > 100 µM | TGI (DU-145 prostate): > 100 µM | TGI (MDA-N): 69.6 µM | TGI (NCI/ADR-RES ovarian): > 100 µM | TGI (SR leukemia): 56.1 µM | TGI (MDA-MB-435): 40.7 µM | TGI (HS 578T breast): > 100 µM | TGI (NCI-H522 lung): 30 µM | TGI (MDA-MB-231 breast): 27.4 µM | TGI (KM12 colon): 22.9 µM | TGI (PC-3 prostate): > 100 µM

O=C(NN1C(=O)CSC1c1ccc(Cl)c(Cl)c1)c1ccncc1 (stereo unspecified)
TGI (DMS 273 small cell lung): > 100 µM | TGI (SNB-78 CNS): > 100 µM | TGI (LXFL 529 NSCLC): > 100 µM | TGI (DLD-1 colon): > 100 µM | TGI (TK-10 renal): > 100 µM | TGI (XF 498 CNS): > 100 µM | TGI (NCI-H522 lung): > 100 µM | TGI (KM12 colon): > 100 µM

CCOC(=O)c1csc(NC(=O)CCCC#N)n1
TGI (MCF7 breast): > 100 µM | TGI (T-47D breast): > 100 µM | TGI (DU-145 prostate): > 100 µM | TGI (NCI-H226 lung): > 100 µM | TGI (MDA-N): > 100 µM | TGI (NCI/ADR-RES ovarian): > 100 µM | TGI (SR leukemia): > 100 µM | TGI (TK-10 renal): > 100 µM | TGI (MDA-MB-435): > 100 µM | TGI (HS 578T breast): > 100 µM | TGI (MDA-MB-231 breast): > 100 µM | TGI (KM12 colon): > 100 µM | TGI (PC-3 prostate): > 100 µM

COc1ccc(/C(C)=N/NC(=S)N(C)C)c(O)c1
TGI (T-47D breast): > 100 µM | TGI (DU-145 prostate): > 100 µM | TGI (MDA-N): > 100 µM | TGI (SR leukemia): > 100 µM | TGI (MDA-MB-435): > 100 µM | TGI (HCT-116 colon): > 100 µM | TGI (HS 578T breast): > 100 µM | TGI (NCI-H522 lung): > 100 µM | TGI (MDA-MB-231 breast): > 100 µM | TGI (KM12 colon): > 100 µM | TGI (PC-3 prostate): > 100 µM

O=c1c2cc3c(=O)n(CCc4ccccc4CO)c(=O)c3cc2c(=O)n1CCc1ccccc1CO
TGI (DMS 273 small cell lung): > 100 µM | TGI (SNB-78 CNS): > 100 µM | TGI (LXFL 529 NSCLC): > 100 µM | TGI (NCI-H226 lung): > 100 µM | TGI (DLD-1 colon): > 100 µM | TGI (TK-10 renal): > 100 µM | TGI (XF 498 CNS): > 100 µM | TGI (HCT-116 colon): > 100 µM | TGI (NCI-H522 lung): > 100 µM | TGI (KM12 colon): > 100 µM

CCOC(=O)C1=C(C)NC(=O)N([N+](=O)[O-])C1c1ccccc1C(F)(F)F (stereo unspecified)
TGI (MCF7 breast): > 100 µM | TGI (T-47D breast): > 100 µM | TGI (DU-145 prostate): > 100 µM | TGI (NCI-H226 lung): > 100 µM | TGI (MDA-N): 79.7 µM | TGI (NCI/ADR-RES ovarian): > 100 µM | TGI (SR leukemia): > 100 µM | TGI (TK-10 renal): > 100 µM | TGI (MDA-MB-435): > 100 µM | TGI (HCT-116 colon): > 100 µM | TGI (HS 578T breast): > 100 µM | TGI (MDA-MB-231 breast): > 100 µM | TGI (PC-3 prostate): > 100 µM

c1ccc([P+](Cc2csnn2)(c2ccccc2)c2ccccc2)cc1
TGI (DMS 273 small cell lung): > 100 µM | TGI (SNB-78 CNS): > 100 µM | TGI (LXFL 529 NSCLC): > 100 µM | TGI (NCI-H226 lung): > 100 µM | TGI (DLD-1 colon): > 100 µM | TGI (SR leukemia): > 100 µM | TGI (TK-10 renal): > 100 µM | TGI (XF 498 CNS): > 100 µM | TGI (HCT-116 colon): > 100 µM | TGI (NCI-H522 lung): > 100 µM | TGI (KM12 colon): > 100 µM

CCc1cc(=O)n(/C(C)=C/c2ccccc2)n1C
TGI (MCF7 breast): > 100 µM | TGI (T-47D breast): > 100 µM | TGI (DU-145 prostate): > 100 µM | TGI (NCI-H226 lung): > 100 µM | TGI (MDA-N): > 100 µM | TGI (NCI/ADR-RES ovarian): > 100 µM | TGI (TK-10 renal): > 100 µM | TGI (MDA-MB-435): > 100 µM | TGI (HCT-116 colon): > 100 µM | TGI (HS 578T breast): > 100 µM | TGI (MDA-MB-231 breast): > 100 µM | TGI (KM12 colon): > 100 µM | TGI (PC-3 prostate): > 100 µM
